Experimental data as given in US20140079836A1, “METHODS AND COMPOSITIONS FOR ALTERING HEALTH, WELLBEING, AND LIFESPAN” (LifeSpan Extension, LLC, priority 2008, published 2014).

Key:
[1] = system: genes involved in longevity (Array 1); assay: Custom RT-PCR microarray (Array 1) gene expression in skin fibroblasts, UVB/UVA1; assay type: cell-based, human; settings: donor three IDE + UVB vs. Green tea + UVB Continuous Incubation; for PPC gene expression fold change / RTC gene expression fold change: control well
Method: Seeding of cells: On Day 1, each cell culture was seeded into 6 well cluster dishes at ˜1.5×10^5 cells in 4 mls medium per well. Three wells were seeded per test condition or control.
Experimental phase: On Day 3, wells were washed 1× with 2 mls medium, fed back 2 mls medium without fetal bovine serum and preincubated for 30-60 minutes before challenge with test or control conditions. After the preincubation, medium was aspirated from the wells and 2.5 mls of test or control condition in medium with 1% fetal bovine serum was pipetted into the appropriate wells.
(3) UVA1, UVB exposed and unexposed cells without test condition were used as controls. The experimental phase ended at 24 hours post UV exposure. Cells from each test and control parameter were then prepped for RNA isolation as described below.
UVB/UVA1 exposure: Cells exposed to UV received 200 mJ/cm^2 UVB/1 MED UVA1 using Thermo Oriel solar simulator model SP66923-3056. Cells were exposed from the bottom of the culture dish. The UV dose delivered to the cells was adjusted for interference from the plastic in the culture dish.
Preparation of RNA: The RNA was isolated using the Qiagen RNEasy Plus Mini Kit according to the manufacturer's protocol which can be found on the World Wilde Web at qiagen.com/literature/Defaultaspx?Term=&Language=EN&LiteratureType=4& ProductCategory=10162. The RNA was quantified and examined for purity using the 260/280 nm read method in a μ Quant spectrophotometer before use in the array.
Creation and Performance of a Custom Microarray (“Array 1”): Through the Custom Array design service of Superarray Bioscience Corporation, a 96 well RT-PCR microarray (“Array 1”) was developed to illustrate genetic responses in cells treated as above for specific genes involved in longevity as well as the relevant quality controls. The array was performed in compliance with manufacturer's guidelines and by recommended manufacturer's protocol as can be found on the World Wilde Web at superarray.com/Manual/perarrayplate.pdf
(§1) Custom Microarray Results: The results from the microarrays were determined using the delta CT method which uses comparisons of control genes and threshold cycles of genes of interest to generate relative expression values. The full set of experimental conditions was cross referenced and the data is provided herewith in DATA TABLE 3.
Preparation of RNA: The RNA was isolated using the Qiagen RNEasy Plus Mini Kit according to the manufacturer's protocol which can be found on the World Wide Web at qiagen.com/literature/Default. aspx?Term=&Language=EN&LiteratureType=4&ProductCategory=10162.
The RNA was quantified and examined for purity using the 260/280 nm read method in a μ Quant spectrophotometer before use in the array.
Creation and Performance of the Custom Microarray: Through the Custom Array design service of Superarray Bioscience Corporation, a 96 well RT-PCR Microarray was developed to illustrate genetic responses in cells treated as above for specific genes involved in longevity as well as the relevant quality controls. The array was performed in compliance with manufacturer's guidelines and by recommended manufacturer's protocol as can be found on the World Wide Web at superarray.com/Manual/perarrayplate.pdf.
as §1, with “4.” for “3.”
as §1, with “5. […]” for “3.”

custom array genes = assay: Chlorogenic acid challenge, custom RT-PCR microarray, dermal fibroblasts ag07999; assay type: cell-based, human; settings: 24 hours
Method: Human dermal fibroblasts (ag07999) were seeded at near confluency in 6-well dishes in 4 ml MEM, 10% FBS/well. 24 hours after seeding, wells were aspirated and 3 ml chlorogenic acid dilution in MEM, 1% FBS added, or MEM, 1% FBS only for control wells. Chlorogenic acid (Acros Organics, Geel, Belgium) dilutions used were: 0.005%, 0.0005%, 0.00005%, 0.000005% and 0.0000005%. 24 hours after chlorogenic acid challenge, wells were aspirated, 1 ml trypsin-EDTA added to each well, swirled and aspirated. Trypsin-EDTA was again added to each well and cells retrieved with MEM 10% FBS when released from the substratum and centrifuged to a pellet.
RNA was collected from the harvested cells according to protocol using RT2 qPCR-Grade RNA Isolation Kit from SABiosciences Co. The RNA was then used to create cDNA (using a First Strand Synthesis Kit, SABiosciences, and following the manufacturer's instructions) and run on the BioRad iCycler RT-PCR machine using Custom RT-PCR Microarray (CAPH09464A, SABiosciences) (Array 1) and SYBR Green Reaction Mix (SABiosciences). Data from Example 16 are shown in FIG. 19; additional results are described and analyzed below.

## COC1=C(OC)C(=O)C(CCCCCCCCCCO)=C(C)C1=O [IDE]
[1]
  ACE gene expression fold change: −1.13
  ACTB gene expression fold change: −2.17
  APOE gene expression fold change: 2.43
  BAX gene expression fold change: −1.01
  BCL2 gene expression fold change: 2.04
  CASP2 gene expression fold change: −1.96
  CASP9 gene expression fold change: 2.11
  CCL4L1 gene expression fold change: 16.91
  CLK1 gene expression fold change: 1.02
  COX1 gene expression fold change: 1.17
  CREBBP gene expression fold change: 1.49
  CYP19A1 gene expression fold change: 24.76
  DDC gene expression fold change: 58.89
  GAPDH gene expression fold change: −2.10
  GH1 gene expression fold change: 17.51
  HIGX1A gene expression fold change: 40.22
  HLA-DRA gene expression fold change: 65.34
  HPRT1 gene expression fold change: 1.30
  HSPA1A gene expression fold change: −1.54
  HSPA1B gene expression fold change: −2.03
  HSPA1L gene expression fold change: −1.39
  IFI44 gene expression fold change: 1.09
  IGF1 gene expression fold change: 4.23
  IGF2 gene expression fold change: −1.16
  IL1A gene expression fold change: 10.41
  IL6 gene expression fold change: −1.25
  IL10 gene expression fold change: 3.20
  KRAS gene expression fold change: 1.21
  MAPK14 gene expression fold change: −1.39
  NADSYN1 gene expression fold change: −2.33
  NFKB1 gene expression fold change: −1.13
  NOS2A gene expression fold change: 40.22
  PARP1 gene expression fold change: −2.68
  PARP2 gene expression fold change: 22.32
  PPARG gene expression fold change: 5.39
  PTGS2 gene expression fold change: 3.68
  SHC1 gene expression fold change: −1.54
  SIRT1 gene expression fold change: 1.39
  SOD1 gene expression fold change: −2.03
  SOD2 gene expression fold change: −1.13
  TEP1 gene expression fold change: 1.06
  TERT gene expression fold change: 3.56
  TNF gene expression fold change: 16.91
  TP53 gene expression fold change: 1.39
[1]; entry r305
  PPC gene expression fold change: −1.48
[1]; entry r306
  RTC gene expression fold change: 1.09
[1]; entry r311
  PPC gene expression fold change: −1.77
[1]; entry r312
  RTC gene expression fold change: −3.29

## O=C(/C=C/c1ccc(O)c(O)c1)O[C@@H]1C[C@](O)(C(=O)O)C[C@@H](O)[C@H]1O [chlorogenic acid, -[[3-(3,4-Dihydroxyphenyl)-1-oxo-2-propenyl]oxy]-1,4,5-trihydroxycyclohexanecarboxylic acid]
Custom array genes; FIG. 17
  IFI44 relative expression: may significantly decrease expression
Custom array genes; FIG. 21a
  expression of genes in the mitochondrial function/biogenesis pathway: primarily decreases gene expression
Custom array genes; at higher concentrations, FIG. 16
  PTGS2 relative expression: significant decrease in PTGS2 gene expression
Custom array genes; increasing concentrations, FIG. 13
  NOS2A relative expression: biphasic response
Custom array genes; increasing concentrations, FIG. 14
  SIRT1 relative expression: entirely decreasing expression
Custom array genes; middle dosage (0.00005%), FIG. 11
  CCL4L1 relative expression: marked repression
